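Values below derive from 48-hour exposures of cells grown in 96-well plates, with endpoints linearly interpolated between the two concentrations bracketing the appropriate inhibition level. At the GI50, growth is halved.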 Active and inactive are the calls of the source. No stated cut-off is given here; in the data, active = GI50 up to about 1.1 µM and inactive = higher.
Key:
Experiment in all cases: inhibition of tumour cell growth, NCI panel, 48 h
MCF7 = tested on: MCF7
LOX IMVI = tested on: LOX IMVI
A498 = tested on: A498
T47D = tested on: T47D
SK-MEL-2 = tested on: SK-MEL-2
A549 = tested on: A549
SF-539 = tested on: SF-539
UO-31 = tested on: UO-31
HOP-62 = tested on: HOP-62
U-251 = tested on: U-251
PC-3 = tested on: PC-3
OVCAR-4 = tested on: OVCAR-4
DU-145 = tested on: DU-145
HOP-92 = tested on: HOP-92
RXF 393 = tested on: RXF 393
CCRF-CEM = tested on: CCRF-CEM
Hs-578T = tested on: Hs-578T
ACHN = tested on: ACHN
TK-10 = tested on: TK-10
XF498 = tested on: XF498

SMILES	GI50 (MCF7)	GI50 (LOX IMVI)	GI50 (A498)	GI50 (T47D)	GI50 (SK-MEL-2)	GI50 (A549)	GI50 (SF-539)	GI50 (UO-31)	GI50 (HOP-62)	GI50 (U-251)	GI50 (PC-3)	GI50 (OVCAR-4)	GI50 (DU-145)	GI50 (HOP-92)	GI50 (RXF 393)	GI50 (CCRF-CEM)	GI50 (Hs-578T)	GI50 (ACHN)	GI50 (TK-10)	GI50 (XF498)
Nc1nc(N)c(N=Nc2ccc([As](=O)(O)O)c(O)c2)c(N)n1	3.75 µM (inactive)	6.67 µM (inactive)	83.6 µM (inactive)	> 25.2 µM (inactive)	> 21.1 µM (inactive)	> 82.4 µM (inactive)	17.1 µM (inactive)	> 88.9 µM (inactive)	8.59 µM (inactive)	22.9 µM (inactive)	22.7 µM (inactive)	32.1 µM (inactive)	7.5 µM (inactive)	35.3 µM (inactive)	7.48 µM (inactive)	1.9 µM (inactive)	13 µM (inactive)	49 µM (inactive)	16.8 µM (inactive)	–
O=c1[nH]c2ccccc2c(=O)c2cc3ccccc3cc12	> 100 µM (inactive)	27.9 µM (inactive)	17.2 µM (inactive)	> 100 µM (inactive)	22.5 µM (inactive)	31.3 µM (inactive)	20.9 µM (inactive)	35.3 µM (inactive)	10.4 µM (inactive)	6.28 µM (inactive)	> 100 µM (inactive)	23.4 µM (inactive)	26.9 µM (inactive)	3.9 µM (inactive)	18 µM (inactive)	51.5 µM (inactive)	8.81 µM (inactive)	33.7 µM (inactive)	15.7 µM (inactive)	–
CC(=O)SC(C[N+](=O)[O-])c1ccc2c(c1)OCO2 (stereo not drawn)	3 µM (inactive)	1.81 µM (inactive)	3.02 µM (inactive)	17.1 µM (inactive)	6.19 µM (inactive)	14.2 µM (inactive)	2.37 µM (inactive)	5.46 µM (inactive)	17.4 µM (inactive)	5.37 µM (inactive)	12.7 µM (inactive)	13.6 µM (inactive)	11 µM (inactive)	12 µM (inactive)	1.9 µM (inactive)	4.8 µM (inactive)	12.9 µM (inactive)	8.81 µM (inactive)	14.4 µM (inactive)	–
COc1ccc(-c2nc(N3CCCC3)no2)cc1	43.2 µM (inactive)	33 µM (inactive)	31.6 µM (inactive)	26.5 µM (inactive)	46.1 µM (inactive)	38 µM (inactive)	24 µM (inactive)	49.4 µM (inactive)	27.9 µM (inactive)	86.3 µM (inactive)	41.6 µM (inactive)	34 µM (inactive)	43.2 µM (inactive)	48.4 µM (inactive)	22 µM (inactive)	20.7 µM (inactive)	24.9 µM (inactive)	35.8 µM (inactive)	> 100 µM (inactive)	–
CC(NC1=CC(=O)c2ncccc2C1=O)C(O)c1ccccc1 (stereo not drawn)	2.31 µM (inactive)	1.8 µM (inactive)	13.4 µM (inactive)	21.5 µM (inactive)	3.55 µM (inactive)	3.03 µM (inactive)	6.04 µM (inactive)	2.95 µM (inactive)	4.83 µM (inactive)	2.61 µM (inactive)	12.1 µM (inactive)	6.78 µM (inactive)	6.22 µM (inactive)	13.2 µM (inactive)	7.76 µM (inactive)	5.75 µM (inactive)	4.2 µM (inactive)	7 µM (inactive)	38 µM (inactive)	–
CCNCC(=O)Nc1ccc2c(c1)C(=O)c1ccc(NC(=O)CNCC)cc1C2=O	1.64 µM (inactive)	2.26 µM (inactive)	2.62 µM (inactive)	3.86 µM (inactive)	15.9 µM (inactive)	2.41 µM (inactive)	4.97 µM (inactive)	3.21 µM (inactive)	5.75 µM (inactive)	1.72 µM (inactive)	2.76 µM (inactive)	0.514 µM (active)	2.69 µM (inactive)	3.38 µM (inactive)	2.53 µM (inactive)	2.9 µM (inactive)	4.02 µM (inactive)	1.92 µM (inactive)	5.22 µM (inactive)	–
Cc1nn(-c2ccccc2)c2c1C(c1cc3ccccc3nc1Cl)NC(=O)N2 (stereo not drawn)	25.3 µM (inactive)	19.4 µM (inactive)	21.5 µM (inactive)	59.2 µM (inactive)	14.3 µM (inactive)	56.2 µM (inactive)	19.9 µM (inactive)	14.3 µM (inactive)	20.4 µM (inactive)	17.1 µM (inactive)	19.8 µM (inactive)	34.1 µM (inactive)	29.4 µM (inactive)	10.8 µM (inactive)	18.5 µM (inactive)	25.8 µM (inactive)	27.5 µM (inactive)	17.7 µM (inactive)	28.2 µM (inactive)	–
C=CC/C(C(=O)OC)=C(/C(=O)OC)N(CCC)CCC	63.2 µM (inactive)	> 100 µM (inactive)	> 100 µM (inactive)	> 100 µM (inactive)	> 100 µM (inactive)	> 100 µM (inactive)	> 100 µM (inactive)	94.8 µM (inactive)	> 100 µM (inactive)	59.4 µM (inactive)	> 100 µM (inactive)	> 100 µM (inactive)	> 100 µM (inactive)	64 µM (inactive)	> 100 µM (inactive)	36.1 µM (inactive)	> 100 µM (inactive)	86.9 µM (inactive)	> 100 µM (inactive)	–
Cc1ccc2c(c1)C(C1Cc3c(C)cccc3C1=O)OC2=O (stereo not drawn)	> 100 µM (inactive)	> 100 µM (inactive)	> 100 µM (inactive)	> 100 µM (inactive)	> 100 µM (inactive)	> 100 µM (inactive)	95.5 µM (inactive)	> 100 µM (inactive)	> 100 µM (inactive)	78 µM (inactive)	> 100 µM (inactive)	> 100 µM (inactive)	> 100 µM (inactive)	> 100 µM (inactive)	55.3 µM (inactive)	> 100 µM (inactive)	> 100 µM (inactive)	> 100 µM (inactive)	> 100 µM (inactive)	–
COC(=O)/C(=C/CC(N=C(c1ccccc1)c1ccccc1)C(=O)OC)N=C(c1ccccc1)c1ccccc1 (stereo not drawn)	–	> 100 µM (inactive)	–	–	> 100 µM (inactive)	> 100 µM (inactive)	–	45.9 µM (inactive)	> 100 µM (inactive)	> 100 µM (inactive)	–	> 100 µM (inactive)	–	–	26.1 µM (inactive)	> 100 µM (inactive)	–	> 100 µM (inactive)	> 100 µM (inactive)	> 100 µM (inactive)
CCCn1c2ccccc2c2ccc3c(c21)C(=O)C=CC3=O	2.19 µM (inactive)	> 10 µM (inactive)	> 10 µM (inactive)	2 µM (inactive)	> 4.78 µM (inactive)	> 10 µM (inactive)	> 4.8 µM (inactive)	4.06 µM (inactive)	> 10 µM (inactive)	> 7.59 µM (inactive)	3.54 µM (inactive)	1.88 µM (inactive)	9.79 µM (inactive)	1.85 µM (inactive)	2.1 µM (inactive)	0.204 µM (active)	7.03 µM (inactive)	1.83 µM (inactive)	2.09 µM (inactive)	–
Cc1cn(C2CC(N=[N+]=[N-])C(CO)O2)c(=O)n(CCCCO)c1=O (stereo not drawn)	> 100 µM (inactive)	> 100 µM (inactive)	> 100 µM (inactive)	> 100 µM (inactive)	> 100 µM (inactive)	> 100 µM (inactive)	> 100 µM (inactive)	> 100 µM (inactive)	> 100 µM (inactive)	> 100 µM (inactive)	> 100 µM (inactive)	> 100 µM (inactive)	> 100 µM (inactive)	> 100 µM (inactive)	> 100 µM (inactive)	> 100 µM (inactive)	> 100 µM (inactive)	> 100 µM (inactive)	> 100 µM (inactive)	–
O=c1c2ccccc2nc2sc(/N=C/C=C/c3ccccc3)nn12	> 100 µM (inactive)	56.9 µM (inactive)	> 100 µM (inactive)	> 100 µM (inactive)	> 100 µM (inactive)	> 100 µM (inactive)	> 100 µM (inactive)	77.4 µM (inactive)	> 100 µM (inactive)	> 100 µM (inactive)	> 100 µM (inactive)	> 100 µM (inactive)	> 100 µM (inactive)	> 100 µM (inactive)	> 100 µM (inactive)	55.5 µM (inactive)	> 100 µM (inactive)	> 100 µM (inactive)	> 100 µM (inactive)	–
CC1=NN(C(=O)CC(=O)Nc2ccccc2Cl)C(=O)C1/N=N/c1ccc(C(=O)O)cc1 (stereo not drawn)	> 100 µM (inactive)	65.6 µM (inactive)	> 100 µM (inactive)	53.2 µM (inactive)	> 100 µM (inactive)	> 100 µM (inactive)	> 100 µM (inactive)	62.8 µM (inactive)	> 100 µM (inactive)	> 100 µM (inactive)	> 100 µM (inactive)	> 100 µM (inactive)	> 100 µM (inactive)	19.6 µM (inactive)	> 100 µM (inactive)	> 100 µM (inactive)	> 100 µM (inactive)	> 100 µM (inactive)	> 100 µM (inactive)	–
Nc1nccc(Nc2ccc(S(N)(=O)=O)cc2)n1	> 100 µM (inactive)	> 100 µM (inactive)	> 100 µM (inactive)	> 100 µM (inactive)	> 100 µM (inactive)	> 100 µM (inactive)	> 100 µM (inactive)	> 100 µM (inactive)	> 100 µM (inactive)	> 100 µM (inactive)	> 100 µM (inactive)	> 100 µM (inactive)	> 100 µM (inactive)	> 100 µM (inactive)	> 100 µM (inactive)	> 100 µM (inactive)	> 100 µM (inactive)	> 100 µM (inactive)	> 100 µM (inactive)	–
